Earlier results in patent publication US12311004B2, “Ophthalmic formulations and methods of use” (VISION SOLUTIONS, LLC, priority 2023, dated 2025).

Experiments:
[1] = system: FHV-1; details: low concentrations, in vitro
[2] = oral, cat

NCCCC[C@H](N)C(=O)O [L-lysine]
effect on the replication kinetics of the virus [1]: no effect
daily intake at which arginine deficiency is likely to occur [2]: exceeding 80 g/kg
